# Laboratory results: paper PMC9229919, “4-Aminoquinoline-Based Adamantanes as Potential Anticholinesterase Agents in Symptomatic Treatment of Alzheimer’s Disease” (Pharmaceutics, 2022)
# Read-outs that look alike come from different tables or passages of the source.
# Experiments:
# purified human BChE = molecular target: T1, purified human BChE (Homo sapiens, UniProt P06276); test: biochemical; assay type: biochemical
# T1 construct: possibly also a gift of Dr Florian Nachon (the sentence is ambiguous)
# T1 sequence (P06276 29-602): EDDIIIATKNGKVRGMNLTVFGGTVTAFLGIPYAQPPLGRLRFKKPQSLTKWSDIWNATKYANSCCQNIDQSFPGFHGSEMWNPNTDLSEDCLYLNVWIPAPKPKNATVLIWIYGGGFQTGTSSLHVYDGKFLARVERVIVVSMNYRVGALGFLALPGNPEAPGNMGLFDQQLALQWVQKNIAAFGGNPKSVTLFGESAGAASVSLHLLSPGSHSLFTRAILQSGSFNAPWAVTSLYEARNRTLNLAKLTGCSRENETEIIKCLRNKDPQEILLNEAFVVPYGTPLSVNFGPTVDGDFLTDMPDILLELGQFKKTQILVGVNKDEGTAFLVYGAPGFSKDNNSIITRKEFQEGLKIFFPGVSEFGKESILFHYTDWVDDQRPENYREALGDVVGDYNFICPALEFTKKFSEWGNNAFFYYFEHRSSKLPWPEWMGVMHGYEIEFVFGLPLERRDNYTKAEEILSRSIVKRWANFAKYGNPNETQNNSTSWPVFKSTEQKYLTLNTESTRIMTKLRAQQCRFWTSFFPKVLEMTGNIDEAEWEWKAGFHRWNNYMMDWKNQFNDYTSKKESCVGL
# Protocol: (§1) Acetylthiocholine (ATCh) and 5,5′-dithiobis(2-nitrobenzoic acid) (DTNB) were purchased from Sigma-Aldrich, St. Louis, MO, USA. ATCh was dissolved in water and DTNB in 0.1 M sodium phosphate buffer (pH 7.4). The 4-aminoquinilines were dissolved in DMSO and all further dilutions were made in water.
# (§2) The sources of AChE and BChE were purified human BChE and recombinant human AChE that was kindly provided by Dr Florian Nachon (Département de Toxicologie, Armed Forces Biomedical Research Institute, Brétigny-sur-Orge, France). […] The enzymes were diluted in sodium phosphate buffer 0.1 M (pH 7.4) containing 0.1% BSA.
# (§3) Enzyme activities were measured spectrophotometrically using a slightly modified Ellman method, as described earlier. […] At least three inhibitor concentrations for each substrate concentration were used in at least three experiments. The apparent inhibition constant (Ki,app) was calculated using the Hunter–Downs Equation and linear regression analysis:(1) Ki,app=vi·i/v0−vi=Ki+Ki/KS·s where the y-intercept determines the enzyme-inhibitor dissociation constant (Ki), while the x-intercept determines the enzyme-substrate dissociation constant, KS.
# (§4) The Hunter–Downs Equation was used under the assumption that the substrate, due to relatively low concentrations used in experiments, would bind only to the catalytic site of the enzymes, while the inhibitors would bind to both CAS and/or PAs. This allowed the type of inhibition to be determined from Ki,app vs. substrate concentration ([S]) dependency on Hunter–Downs plot.
# (§5) The final content of DMSO in the measurements was up to 0.2%. […] The measurements were performed at 25 °C on a Tecan Infinite M200Pro plate reader (Tecan Austria GmbH, Salzburg, Austria).
# recombinant human AChE = molecular target: T2, recombinant human AChE (Homo sapiens, UniProt P22303); test: biochemical; assay type: biochemical
# T2 construct: gift of Dr Florian Nachon (Armed Forces Biomedical Research Institute, Brétigny-sur-Orge, France)
# T2 sequence (P22303 32-614): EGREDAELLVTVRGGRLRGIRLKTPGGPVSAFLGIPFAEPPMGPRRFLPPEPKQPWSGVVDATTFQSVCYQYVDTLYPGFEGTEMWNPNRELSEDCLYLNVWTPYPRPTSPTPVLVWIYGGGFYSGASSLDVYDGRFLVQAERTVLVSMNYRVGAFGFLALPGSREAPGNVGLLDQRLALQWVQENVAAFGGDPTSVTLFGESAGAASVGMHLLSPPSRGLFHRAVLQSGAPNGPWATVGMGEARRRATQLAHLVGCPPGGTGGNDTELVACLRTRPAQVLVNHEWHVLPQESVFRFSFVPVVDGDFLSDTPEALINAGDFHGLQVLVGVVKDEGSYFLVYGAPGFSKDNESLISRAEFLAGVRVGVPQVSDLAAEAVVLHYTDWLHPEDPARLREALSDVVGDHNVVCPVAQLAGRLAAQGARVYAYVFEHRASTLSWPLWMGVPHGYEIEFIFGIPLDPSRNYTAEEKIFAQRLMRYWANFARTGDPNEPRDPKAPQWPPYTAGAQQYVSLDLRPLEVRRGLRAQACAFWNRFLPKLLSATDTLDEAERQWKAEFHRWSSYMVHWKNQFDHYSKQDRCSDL
# Protocol: as §1, §2, §3, §4, §5
# [1] = Ferric reducing antioxidant power (FRAP) assay; settings: mean ± standard error of three experiments;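 further: expressed as µM Fe2+ equivalents from an FeSO4·7H2O standard curve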
# Protocol: . All the chemicals were purchased from Sigma-Aldrich (St. Louis, MO, USA), except for tripyridyltriazine (TPTZ) (Fluka, Buchs, Switzerland) and FeCl3 (Kemika, Zagreb, Croatia). The FRAP assay was assessed according to Benzie and Strain [53] with slight procedure adjustments for 96-well microplates. The method is based on the reduction of the ferric-tripyridyltriazine (Fe^3+-TPTZ) complex to ferrous tripyridyltriazine (Fe^2+-TPTZ) by the action of electron-donating compounds at a low pH. Briefly, the FRAP reagent was prepared by mixing acetate buffer (300 mM, pH 3.6), a solution of 10 mM TPTZ in 40 mM HCl, and 20 mM FeCl3 at 10:1:1 (v/v/v). Then, 240 μL of FRAP reagent and 10 μL of sample solution were added to a 96-well plate and incubated at 37 °C for 60 min. The absorbance was measured at 593 nm using a microplate reader (Infinite M200PRO, Tecan Austria GmbH, Salzburg, Austria) against a blank. The reducing capacity was determined for 10 and 100 µM compound concentrations. […]. All measurements were performed in three independent experiments. FRAP values, denominating the reduction of ferric-tripyridyltriazine (Fe^3+-TPTZ) to ferrous tripyridyltriazine (Fe^2+-TPTZ) by 4-aminoquinolines were calculated based on a standard curve obtained using […].
# [2] = Reverse-phase thin-layer chromatographic lipophilicity (RF, RM0); assay type: physicochemical; settings: for RM0: intercept of RM = RM0 + bC; for b: slope of RM = RM0 + bC
# Protocol: Chromatographic determination of lipophilicity
# Merck, Darmstadt, Germany). The mobile phase contained organic modifier (methanol, acetone or dioxane), water and hydrochloric acid.
# Methanol was varied in the range […]
# with an increment of 10%. […]
# before chromatogram development. The solvent developing distance was 4.5 cm. Detection of […]
# All experiments were performed at ambient temperature (22±2 °C). Retention parameters were calculated as previously described. […]
# [3] = Acetone/Water/Hydrochloric acid (conc.)
# [4] = Dioxane/Water/Hydrochloric acid (conc.)
# [5] = Methanol/Water/Hydrochloric acid (conc.)
smiles,measurement,setting,value
Clc1ccc2c(NCCCCCCCCNCC34CC5CC(CC(C5)C3)C4)ccnc2c1 [Compound 5],increase in BChE inhibition vs compounds 3 and 4,purified human BChE,about 9 times
same,more potent BChE inhibitor than galantamine,purified human BChE; comparator ref [63],12 times
same,Ki,"purified human BChE; logarithm of Ki in µM, BChE, dependent variable of the QSAR model, read-out: Y Measured 2 log(ki)Bche, log (Ki/µM BChE) (converted)",0.0912 µM
same,Ki,"purified human BChE; ± standard error, 25 °C, ATCh substrate, read-out: Ki BChE",0.091 ± 0.007 µM
same,less potent AChE inhibitor than donepezil and tacrine,recombinant human AChE,2 to 3 times
same,IS,"recombinant human AChE; IS = Ki(BChE)/Ki(AChE), IS > 1 selective to AChE",1.2
same,Ki,"recombinant human AChE; log (Ki/µM AChE), read-out: Y Measured 1 log(ki)Ache (converted)",0.0759 µM
same,increase in AChE inhibition potency,recombinant human AChE; n-octylene spacer vs unbranched compounds with shorter spacer,about 12 times
same,Ki,"recombinant human AChE; ± standard error, 25 °C, ATCh substrate, read-out: Ki AChE",0.075 ± 0.06 µM
same,FRAP,[1]; 10 µM compound,9.5 ± 1.9 µM
same,FRAP,[1]; 100 µM compound,82 ± 4 µM
same,RM0,[2]; [3],2.706
same,b,[2]; [3],4.173
same,RM0,[2]; [4],1.151
same,b,[2]; [4],2.214
same,RM0,[2]; [5],3.7376
same,b,[2]; [5],4.663
same,"RF, Methanol/Water/Hydrochloric acid (conc.), mobile phase I","[2]; RP-18 silica, I = 90%MeOH/5%H2O/5%HCl",0.67
same,"RF, Dioxane/Water/Hydrochloric acid (conc.), mobile phase II","[2]; RP-18 silica, II = 80%Dioxane/15%H2O/5%HCl",0.78
same,"RF, Methanol/Water/Hydrochloric acid (conc.), mobile phase II","[2]; RP-18 silica, II = 85%MeOH/10%H2O/5%HCl",0.62
same,"RF, Acetone/Water/Hydrochloric acid (conc.), mobile phase III","[2]; RP-18 silica, III = 70%AC/25%H2O/5%HCl",0.55
same,"RF, Dioxane/Water/Hydrochloric acid (conc.), mobile phase III","[2]; RP-18 silica, III = 70%Dioxane/25%H2O/5%HCl",0.7
same,"RF, Methanol/Water/Hydrochloric acid (conc.), mobile phase III","[2]; RP-18 silica, III = 80%MeOH/15%H2O/5%HCl",0.42
same,"RF, Dioxane/Water/Hydrochloric acid (conc.), mobile phase IV","[2]; RP-18 silica, IV = 60%Dioxane/35%H2O/5%HCl",0.7
same,"RF, Acetone/Water/Hydrochloric acid (conc.), mobile phase IV","[2]; RP-18 silica, IV = 65%AC/30%H2O/5%HCl",0.49
same,"RF, Methanol/Water/Hydrochloric acid (conc.), mobile phase IV","[2]; RP-18 silica, IV = 75%MeOH/20%H2O/5%HCl",0.44
same,"RF, Acetone/Water/Hydrochloric acid (conc.), mobile phase IX","[2]; RP-18 silica, IX = 40%AC/55%H2O/5%HCl",0.04
same,"RF, Methanol/Water/Hydrochloric acid (conc.), mobile phase IX","[2]; RP-18 silica, IX = 50%MeOH/45%H2O/5%HCl",0.02
same,"RF, Dioxane/Water/Hydrochloric acid (conc.), mobile phase V","[2]; RP-18 silica, V = 50%Dioxane/45%H2O/5%HCl",0.47
same,"RF, Acetone/Water/Hydrochloric acid (conc.), mobile phase V","[2]; RP-18 silica, V = 60%AC/35%H2O/5%HCl",0.39
same,"RF, Methanol/Water/Hydrochloric acid (conc.), mobile phase V","[2]; RP-18 silica, V = 70%MeOH/25%H2O/5%HCl",0.34
same,"RF, Dioxane/Water/Hydrochloric acid (conc.), mobile phase VI","[2]; RP-18 silica, VI = 40%Dioxane/55%H2O/5%HCl",0.31
same,"RF, Acetone/Water/Hydrochloric acid (conc.), mobile phase VI","[2]; RP-18 silica, VI = 55%AC/40%H2O/5%HCl",0.32
same,"RF, Methanol/Water/Hydrochloric acid (conc.), mobile phase VI","[2]; RP-18 silica, VI = 65%MeOH/30%H2O/5%HCl",0.23
same,"RF, Acetone/Water/Hydrochloric acid (conc.), mobile phase VII","[2]; RP-18 silica, VII = 50%AC/45%H2O/5%HCl",0.28
same,"RF, Methanol/Water/Hydrochloric acid (conc.), mobile phase VII","[2]; RP-18 silica, VII = 60%MeOH/35%H2O/5%HCl",0.11
same,"RF, Acetone/Water/Hydrochloric acid (conc.), mobile phase VIII","[2]; RP-18 silica, VIII = 45%AC/50%H2O/5%HCl",0.19
same,"RF, Methanol/Water/Hydrochloric acid (conc.), mobile phase VIII","[2]; RP-18 silica, VIII = 55%MeOH/40%H2O/5%HCl",0.07
